# Strand notation (5' to 3'): a small letter for the sugar, then the base; units joined by * are phosphorothioate-linked, units joined directly phosphodiester-linked; [ ] holds rarer units or linkages, { } end groups; capitals alone tell only the bases. k = constrained ethyl (cEt); [5mC] = 5-methylcytosine; d = 2'-deoxy (DNA)
# Tested on: human SMAD7 mRNA
# Assay: Antisense inhibition of human SMAD7 mRNA expression in Hep3B cells by 3-10-3 cEt gapmers, 10,000 nM, electroporation (Example 2)
# Assay type: cell-based
# Settings: Hep3B cells, 10,000 nM antisense oligonucleotide, electroporation, approximately 24 hours, RT-PCR primer probe set RTS5062, relative to untreated control cells
# Summary of the method: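 Percent inhibition of SMAD7 mRNA, relative to untreated cells, after ~24 h exposure of electroporated Hep3B cells to 10,000 nM cEt gapmer; levels by qRT-PCR, corrected for total RNA.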
row,Substance,% Inhibition
1,799970 (kT*k[5mC]*k[5mC]*dT*d[5mC]*dA*dG*dG*dA*dA*dA*d[5mC]*dA*k[5mC]*kA*kG; antisense) [compound 799970],43%
2,799971 (kG*kT*kA*dA*dA*dA*d[5mC]*dT*dT*dG*d[5mC]*dT*dG*kA*kG*kA; antisense) [compound 799971],31%
3,799972 (k[5mC]*kA*k[5mC]*dA*dA*dG*dG*dA*d[5mC]*d[5mC]*d[5mC]*dT*dT*kG*k[5mC]*kT; antisense) [compound 799972],0%
4,799973 (kA*kT*kA*dA*dT*dT*d[5mC]*dA*d[5mC]*dA*dA*dG*dG*kA*k[5mC]*k[5mC]; antisense) [compound 799973],0%
5,799974 (kG*kA*k[5mC]*dT*d[5mC]*d[5mC]*dA*dG*dT*dG*d[5mC]*d[5mC]*dA*kA*kT*k[5mC]; antisense) [compound 799974],23%
6,799975 (kT*k[5mC]*kT*dT*d[5mC]*dA*dG*dG*dG*dA*d[5mC]*dA*dA*kG*k[5mC]*k[5mC]; antisense) [compound 799975],38%
7,799976 (kT*k[5mC]*kA*dA*dA*dG*dG*dT*dT*dA*dA*d[5mC]*dA*kG*k[5mC]*kA; antisense) [compound 799976],34%
8,799977 (kG*kG*kA*d[5mC]*dA*dT*d[5mC]*dT*d[5mC]*dA*dA*dA*dG*kG*kT*kT; antisense) [compound 799977],36%
9,799978 (k[5mC]*kT*k[5mC]*d[5mC]*dA*d[5mC]*dA*dA*d[5mC]*dG*dG*dA*d[5mC]*kA*kT*k[5mC]; antisense) [compound 799978],24%
10,799979 (kA*kA*k[5mC]*dG*dG*dT*dT*dG*d[5mC]*d[5mC]*dT*d[5mC]*dA*kT*k[5mC]*k[5mC]; antisense) [compound 799979],38%
11,799990 (kT*kT*kG*d[5mC]*dA*d[5mC]*d[5mC]*dT*dG*dG*d[5mC]*dA*dA*k[5mC]*k[5mC]*kT; antisense) [compound 799990],0%
12,799991 (kG*kG*k[5mC]*d[5mC]*dG*d[5mC]*d[5mC]*dT*d[5mC]*d[5mC]*dT*dG*d[5mC]*kA*kG*kG; antisense) [compound 799991],19%
13,799992 (kG*kG*k[5mC]*dA*d[5mC]*dG*dG*d[5mC]*d[5mC]*dG*d[5mC]*d[5mC]*dT*k[5mC]*k[5mC]*kT; antisense) [compound 799992],9%
14,799993 (kA*kT*kA*dA*dT*dG*dA*dA*dG*dT*dG*dA*dT*kA*kT*kT; antisense) [compound 799993],0%
15,799994 (kA*k[5mC]*kT*dT*dG*dG*dA*dT*dA*dA*dT*dG*dA*kA*kG*kT; antisense) [compound 799994],2%
16,799995 (k[5mC]*kT*kG*dT*dG*dA*dG*dG*d[5mC]*dA*d[5mC]*dT*dT*kG*kG*kA; antisense) [compound 799995],63%
17,799996 (kG*kA*k[5mC]*d[5mC]*d[5mC]*dA*d[5mC]*dG*dG*dT*dT*dA*dA*kA*kT*kG; antisense) [compound 799996],36%
18,799997 (kA*kT*kG*dA*d[5mC]*d[5mC]*d[5mC]*dA*d[5mC]*dG*dG*dT*dT*kA*kA*kA; antisense) [compound 799997],14%
19,799998 (k[5mC]*kA*kG*dT*dA*dA*dA*dG*dA*d[5mC]*dA*dT*dG*kA*kG*k[5mC]; antisense) [compound 799998],45%
20,799999 (kT*kT*kA*dG*dG*dA*dA*d[5mC]*dA*dA*dG*dG*dG*k[5mC]*kA*kA; antisense) [compound 799999],23%

# Same assay, conditions: Hep3B cells, electroporation with 10,000 nM antisense oligonucleotide, approximately 24 hours, SMAD7 mRNA by RT-PCR (RTS5062), relative to untreated control cells
row,Substance,% Inhibition
1,799965 (antisense k[5mC]*kT*k[5mC]*d[5mC]*dA*dG*dT*dG*dA*dA*dG*dT*dG*kA*kG*kA) [compound 799965],0%
2,799966 (antisense kG*kT*kG*dG*dA*dA*dG*dG*d[5mC]*dT*dG*dA*d[5mC]*k[5mC]*kT*kG) [compound 799966],35%
3,799968 (k[5mC]*kT*kG*d[5mC]*dG*dA*dG*dT*dT*dA*dA*dT*d[5mC]*kA*kG*kA; antisense) [compound 799968],27%
4,799969 (kT*kT*kA*dG*dA*dG*dT*dG*dA*dG*dT*dT*d[5mC]*k[5mC]*kT*k[5mC]; antisense) [compound 799969],46%
5,799981 (kA*k[5mC]*k[5mC]*dA*dA*d[5mC]*dG*dG*dT*dT*dG*d[5mC]*d[5mC]*kT*k[5mC]*kA; antisense) [compound 799981],14%
6,799982 (k[5mC]*kA*k[5mC]*d[5mC]*dA*d[5mC]*dG*d[5mC]*d[5mC]*dT*d[5mC]*dG*d[5mC]*kT*kA*kA; antisense) [compound 799982],0%
7,799983 (k[5mC]*kA*kT*d[5mC]*dA*d[5mC]*d[5mC]*dA*d[5mC]*dG*d[5mC]*d[5mC]*dT*k[5mC]*kG*k[5mC]; antisense) [compound 799983],15%
8,799984 (kA*k[5mC]*kA*dT*d[5mC]*dA*d[5mC]*d[5mC]*dA*d[5mC]*dG*d[5mC]*d[5mC]*kT*k[5mC]*kG; antisense) [compound 799984],61%
9,799985 (kA*kA*k[5mC]*dA*dT*d[5mC]*dA*d[5mC]*d[5mC]*dA*d[5mC]*dG*d[5mC]*k[5mC]*kT*k[5mC]; antisense) [compound 799985],53%
10,799986 (kA*kA*kA*d[5mC]*dA*dT*d[5mC]*dA*d[5mC]*d[5mC]*dA*d[5mC]*dG*k[5mC]*k[5mC]*kT; antisense) [compound 799986],44%
11,799987 (k[5mC]*kA*kA*dA*d[5mC]*dA*dT*d[5mC]*dA*d[5mC]*d[5mC]*dA*d[5mC]*kG*k[5mC]*k[5mC]; antisense) [compound 799987],57%
12,799988 (kG*k[5mC]*kG*d[5mC]*dA*dA*dA*d[5mC]*dA*dT*d[5mC]*dA*d[5mC]*k[5mC]*kA*k[5mC]; antisense) [compound 799988],32%
13,799989 (kT*kG*k[5mC]*dA*d[5mC]*d[5mC]*dT*dG*dG*d[5mC]*dA*dA*d[5mC]*k[5mC]*kT*kG; antisense) [compound 799989],57%
14,800000 (k[5mC]*kA*kT*dT*dT*dA*dG*dG*dA*dA*d[5mC]*dA*dA*kG*kG*kG; antisense) [compound 800000],37%
15,800001 (k[5mC]*kA*kA*dG*dA*dT*dT*d[5mC]*d[5mC]*dA*dT*dT*dT*kA*kG*kG; antisense) [compound 800001],2%
16,800002 (k[5mC]*k[5mC]*k[5mC]*d[5mC]*dA*dA*dG*dA*dT*dT*d[5mC]*d[5mC]*dA*kT*kT*kT; antisense) [compound 800002],0%
17,800003 (kA*kG*kA*dA*d[5mC]*dA*d[5mC]*dG*dG*dG*d[5mC]*dA*d[5mC]*kG*k[5mC]*kG; antisense) [compound 800003],24%
18,800004 (kT*kT*kT*dT*dA*dA*dT*dT*dT*dG*dA*dA*dG*kG*k[5mC]*kG; antisense) [compound 800004],8%
19,800005 (k[5mC]*k[5mC]*kG*d[5mC]*dA*d[5mC]*d[5mC]*d[5mC]*dA*dG*dA*d[5mC]*d[5mC]*k[5mC]*k[5mC]*kT; antisense) [compound 800005],27%
